Values of other authors, collected in patent EP2637636B1, “LEAVE-ON NONSOLID SKIN CONDITIONING COMPOSITIONS CONTAINING 12-HYDROXYSTEARIC ACID” (Unilever PLC, priority 2010, dated 2012).

Conditions: surfactants used in the Examples

Row | HLB | Compound
1 | > 7 | CCCCCCCCCCCCNC(=O)[C@H](O)[C@@H](O)[C@H](O[C@@H]1O[C@H](CO)[C@H](O)[C@H](O)[C@H]1O)[C@H](O)CO [C12 lactobionamide]
2 | > 7 | Hexadecyl n-methyl glucamide
3 | 4.7 | Sorbitan Monostearate [Span 60]

Row | Compound | HLB
4 | Glyceryl hydroxystearate | about 5
